From patent USH83H, “Dental antiplaque agents and inhibitors of connective tissue destruction” (American Cyanamid Company, priority 1985, dated 1986)
Counter-ions that a name gives are not always drawn.

Legend:
corneal ulceration = details: human; cited from earlier work
corneal ulcerations = details: directly applied; alkali burned rabbit; cited from earlier work
[1] = compared with cysteine; cited from earlier work
[2] = In vitro binding (competition) assay with 14C reference compound on tooth powder; details: 1 mg tooth powder, PBS, 60 minutes at 37° C.; relative to reference 6,6'-[ureylenebis(m-phenylenecarbonylimino)] analog; >1 = less efficient
Excerpt: Using (radioactive) ^14 C-6,6'-[ureylenebis(m-phenylenecarbonylimino)]bis[4-hydroxy-2-naphthalenesulfonic acid]disodium salt, an in vitro binding (competition) assay procedure has been established which involves an insoluble substrate such as tooth powder which will bind the ^14 C-6,6'-[ureylenebis(m-phenylenecarbonylimino)]bis[4-hydroxy-2-naphthalenesulfonic acid]disodium salt. The amount of ^14 C-6,6'-[ureylenebis(m-phenylenecarbonylimino)]bis[4-hydroxy-2-naphthalenesulfonic acid]disodium salt bound is determined by washing away the unbound radioactive compound and counting CPM (counts per minute) of the insoluble tooth powder/^14 C-6,6'-[ureylenebis(m-phenylenecarbonylimino)]bis[4-hydroxy-2-naphthalenesulfonic acid]disodium salt complex. […] The inhibiting effect of the test compound on binding compared to non-radioactive 6,6'-[ureylenebis(m-phenylenecarbonylimino)]bis[4-hydroxy-2-naphthalenesulfonic acid]disodium salt was determined as follows: A one mg amount of tooth powder was incubated in one ml of phosphate buffered saline (PBS) with 10 μg of ^14 C-6,6'-[ureylenebis(m-phenylenecarbonylimino)]bis[4-hydroxy-2-naphthalenesulfonic acid]disodium salt and varying dose amounts (ranging from 0 to 2 mg) of the same cold (non-radioactive) compound. […]

[3] = molecular target: T1, human skin fibroblast collagenase (Homo sapiens, UniProt P03956); assay: Collagenase Assay, Test Code 006 (degradation of radiolabeled native collagen fibrils); format: biochemical; details: test conc.: 30 μg/ml; ratio of weight (μg) for 50% inhibition vs reference 6,6'-[ureylenebis(m-phenylenecarbonylimino)] analog; >1 = less active
T1 construct: endogenous in cells; host or cells: human skin fibroblasts
T1 sequence (P03956 100-469): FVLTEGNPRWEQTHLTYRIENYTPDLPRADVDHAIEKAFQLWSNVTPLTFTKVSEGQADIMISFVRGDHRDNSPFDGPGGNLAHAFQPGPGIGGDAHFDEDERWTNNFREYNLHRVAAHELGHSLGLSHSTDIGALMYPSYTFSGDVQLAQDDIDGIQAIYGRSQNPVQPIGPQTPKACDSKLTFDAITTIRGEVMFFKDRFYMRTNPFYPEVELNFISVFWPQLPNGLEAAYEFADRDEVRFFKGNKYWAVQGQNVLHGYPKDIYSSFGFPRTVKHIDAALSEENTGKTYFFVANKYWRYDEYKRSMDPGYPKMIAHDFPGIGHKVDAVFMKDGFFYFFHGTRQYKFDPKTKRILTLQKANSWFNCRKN
Description: (i) Collagenase Assay--Test Code 006
A collagenase assay was performed by a modification of the method of Harper, et al., Biochem., 10, 3035 (1971). In a typical assay (total volume of 0.45 ml), 100 μl of the activated enzyme was added to the ^14 C-labeled collagen fibrils (250 μl) followed by 100 μl of 50 mM cacodylate, pH 7.4, containing 5 mM calcium chloride. After incubation at 37° C. for 16 hours, the tubes were centrifuged in a Beckman microfuge for five minutes at full speed. An aliquot (200 μl) of the supernatant, representing collagenase digestion products of the fibril, was assayed for radioactivity. The effect of the test compound on collagen degradation by collagenase was examined as follows:
Varying concentrations of the test compound (in distilled water) were added to the assay tubes containing active collagenase (total volume 450 μl) and after 16 hours the amount of radioactivity in the supernatant was determined. Appropriate blanks and trypsin controls were run in parallel.
The result is expressed as an ID50 collagenase value which represents a ratio of the weight (μg) of the representative compound required for 50% inhibition of collagenase over the weight (μg) of 6,6'-[ureylenebis(m-phenylenecarbonylimino)]bis[4-hydroxy-2-naphthalenesulfonic acid]disodium salt required for 50% inhibition of collagenase.

collagenase = details: literature or U.S. Pat. No. 4,297,372; cited from earlier work
[4] = Binding to insoluble collagenous structures; details: teeth, dentin, gingiva and the like

Row | Molecule | collagenase inhibition / inhibition of collagen degradation (collagenase) | further results
1 | CC(=O)N[C@@H](CS)C(=O)O [acetylcysteine] |  | treatment of acute and chronic corneal ulceration (corneal ulceration): effective in the treatment of acute and chronic corneal ulceration; frequency of corneal ulceration (corneal ulcerations): reduce the frequency of ulceration; stability [1]: greater stability
2 | O=C(Nc1ccc(S(=O)(=O)Nc2ccc3cc(S(=O)(=O)O)cc(O)c3c2)cc1)Nc1ccc(S(=O)(=O)Nc2ccc3cc(S(=O)(=O)O)cc(O)c3c2)cc1 [6,6'-[Ureylenebis(p-phenylenesulfonylimino)]bis-[4-hydroxy-2-naphthalenesulfonic acid]disodium salt] |  | ID50 Binding Ratio [2]: 1.55; ID50 Collagenase Ratio [3]: 1.73
3 | O[C@H](CS)[C@H](O)CS (racemic) [dithiothreitol] | collagenase inhibitors | 
4 | α2 -macroglobulin: serum component; naturally occurring collagenase inhibitor | collagenase inhibitors | 
5 | c1cnc2c(c1)ccc1cccnc12 [1,10-phenanthroline] | collagenase inhibitors | 
6 | sodium auriothiomalate | collagenase inhibitors | 
7 | O=C([O-])CN(CCN(CC(=O)[O-])CC(=O)[O-])CC(=O)[O-].[Ca+2].[Ca+2] [Calcium ethylenediaminetetraacetate] |  | frequency of corneal ulceration (corneal ulcerations): reduce the frequency of ulceration
8 | Cc1ccc(C(=O)Nc2ccc(S(=O)(=O)O)c3cc(S(=O)(=O)O)cc(S(=O)(=O)O)c23)cc1NC(=O)c1cccc(NC(=O)Nc2cccc(C(=O)Nc3cc(C(=O)Nc4ccc(S(=O)(=O)O)c5cc(S(=O)(=O)O)cc(S(=O)(=O)O)c45)ccc3C)c2)c1 [Suramin] | not inhibiting the action of collagenase | 
9 | Cc1cc(-c2ccc(/N=N/c3c(S(=O)(=O)O)cc4cc(S(=O)(=O)O)cc(N)c4c3O)c(C)c2)ccc1/N=N/c1c(S(=O)(=O)O)cc2cc(S(=O)(=O)O)cc(N)c2c1O [trypan blue] | inhibiting the activity of collagenase | 
10 | N[C@@H](CS)C(=O)O [cysteine] | collagenase inhibitors | treatment of acute and chronic corneal ulceration (corneal ulceration): effective in the treatment of acute and chronic corneal ulceration
11 | O=C(Nc1cccc(C(=O)Nc2ccc3cc(S(=O)(=O)O)cc(O)c3c2)c1)Nc1cccc(C(=O)Nc2ccc3cc(S(=O)(=O)O)cc(O)c3c2)c1 [6,6'-[ureylenebis(m-phenylenecarbonylimino)]bis[4-hydroxy-2-naphthalenesulfonic acid]disodium salt] | inhibitor of the degradation of collagen | reversibility and saturability of binding [4]: saturable and reversible
